Assay results taken from patent publication US12528801B2 (Givaudan SA, priority 2019, dated 2026).

Target: T1, hTRPM8 (Homo sapiens, UniProt Q7Z2W7)
T1 construct: expressed in transfected cells
Assay: Assay on TRPM8 modulators: calcium imaging (Fluo-4, Flexstation) in HEK293 cell line stably expressing hTRPM8
Assay type: cell-based
Settings: HEK293 cells stably expressing hTRPM8; calcium influx, Fluo-4, Flexstation 3; sigmoidal dose-response fit
Procedure, shortened: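 HEK293 cells stably expressing hTRPM8 were loaded with Fluo-4 AM plus probenecid and kept in HEPES buffer, pH 7.4. Calcium influx to serially diluted compounds was recorded for 120 s. Maximal activation was referenced to solvent control and 31.6 μM menthol, with EC values from sigmoidal dose-response fits.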

T1 sequence (Q7Z2W7 whole entry): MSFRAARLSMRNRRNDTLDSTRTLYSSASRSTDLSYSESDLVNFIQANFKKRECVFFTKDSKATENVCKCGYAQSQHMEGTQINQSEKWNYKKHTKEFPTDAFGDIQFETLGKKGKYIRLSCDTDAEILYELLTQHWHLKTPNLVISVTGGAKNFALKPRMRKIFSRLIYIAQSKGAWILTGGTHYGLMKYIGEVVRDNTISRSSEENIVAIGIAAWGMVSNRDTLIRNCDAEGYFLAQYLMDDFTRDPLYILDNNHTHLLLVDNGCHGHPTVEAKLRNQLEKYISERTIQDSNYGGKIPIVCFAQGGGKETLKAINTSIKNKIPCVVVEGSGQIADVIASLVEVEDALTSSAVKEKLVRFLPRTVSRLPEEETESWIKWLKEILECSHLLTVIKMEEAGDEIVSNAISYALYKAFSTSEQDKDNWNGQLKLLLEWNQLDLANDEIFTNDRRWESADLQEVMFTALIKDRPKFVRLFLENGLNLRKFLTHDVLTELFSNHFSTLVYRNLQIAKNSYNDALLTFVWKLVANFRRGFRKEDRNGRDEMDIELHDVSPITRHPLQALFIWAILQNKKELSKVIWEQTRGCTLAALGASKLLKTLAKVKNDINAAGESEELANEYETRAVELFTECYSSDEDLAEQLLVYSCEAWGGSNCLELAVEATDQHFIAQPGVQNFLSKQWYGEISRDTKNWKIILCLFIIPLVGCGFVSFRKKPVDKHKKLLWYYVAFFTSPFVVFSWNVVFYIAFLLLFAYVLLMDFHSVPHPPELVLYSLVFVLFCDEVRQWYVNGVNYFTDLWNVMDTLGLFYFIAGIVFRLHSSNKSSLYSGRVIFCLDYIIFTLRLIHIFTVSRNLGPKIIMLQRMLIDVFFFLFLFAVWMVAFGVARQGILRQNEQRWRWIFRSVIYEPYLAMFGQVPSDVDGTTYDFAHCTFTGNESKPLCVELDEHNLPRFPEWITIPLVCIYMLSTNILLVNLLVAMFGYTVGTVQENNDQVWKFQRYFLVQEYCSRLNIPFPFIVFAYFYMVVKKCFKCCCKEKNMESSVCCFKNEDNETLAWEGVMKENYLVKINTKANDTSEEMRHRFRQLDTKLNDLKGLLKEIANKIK

Q: `CC(C(=O)N1CCCCC1c1nc(-c2ccccc2)c[nH]1)C1CC1` (stereo not shown) [Compound 151, 2-cyclopropyl-1-(2-(4-phenyl-1H-imidazol-2-yl)piperidin-1-yl)propan-1-one] was tested. Which EC50 did it give?
A: The EC50 was 50 to 300 nM.

Q: For `COC(C(=O)N1CCCCC1c1nc(-c2ccccc2)c[nH]1)C1CC1` (stereo not shown) [Compound 152, 2-cyclopropyl-2-methoxy-1-(2-(4-phenyl-1H-imidazol-2-yl)piperidin-1-yl)ethan-1-one], which EC50 is on record?
A: The EC50 was 300 to 1000 nM.

Q: `CCOC(C)C(=O)N1CCCCC1c1ncc(-c2cccc(F)c2)[nH]1` (stereo not shown) [Compound 153, 2-ethoxy-1-(2-(5-(3-fluorophenyl)-1H-imidazol-2-yl)piperidin-1-yl)propan-1-one] was tested. Which EC50 did it give?
A: The EC50 was 1000 to 35000 nM.

Q: `CC=C(CC)C(=O)N1CCCCC1c1nc(-c2ccccc2)c[nH]1` (stereo not shown) [Compound 154, 2-ethyl-1-(2-(4-phenyl-1H-imidazol-2-yl)piperidin-1-yl)but-2-en-1-one] was tested. Which EC50 did it give?
A: Its EC50 is 50 to 300 nM.

Q: With `CCC(CC)C(=O)N1CCCCC1c1nc(-c2ccccc2)c[nH]1` (stereo not shown) [Compound 155, 2-ethyl-1-(2-(4-phenyl-1H-imidazol-2-yl)piperidin-1-yl)butan-1-one] as the molecule, how does the EC50 read?
A: Its EC50 is 50 to 300 nM.

Q: For `CSC(C)C(=O)N1CCCCC1c1ncc(-c2ccc(C#N)c(F)c2)[nH]1` (stereo not shown) [Compound 156, 2-fluoro-4-(2-(1-(2-(methylthio)propanoyl)piperidin-2-yl)-1H-imidazol-5-yl)benzonitrile], which EC50 is on record?
A: Its EC50 is under 50 nM.

Q: Which EC50 does the source give for `Cc1ccc(-c2cnc(C3CCCCN3C(=O)C(C)S)[nH]2)cc1` (stereo not shown) [Compound 157, 2-mercapto-1-(2-(5-(p-tolyl)-1H-imidazol-2-yl)piperidin-1-yl)propan-1-one] here?
A: Its EC50 is 50 to 300 nM.

Q: For `CCC(OC)C(=O)N1CCCCC1c1nc(-c2ccccc2)c[nH]1` (stereo not shown) [Compound 158, 2-methoxy-1-(2-(4-phenyl-1H-imidazol-2-yl)piperidin-1-yl)butan-1-one], which EC50 is on record?
A: Its EC50 is 300 to 1000 nM.

Q: For `COC(C)C(=O)N1CCCCC1c1nc(-c2ccccc2)c[nH]1` (stereo not shown) [Compound 159, 2-methoxy-1-(2-(4-phenyl-1H-imidazol-2-yl)piperidin-1-yl)propan-1-one], which EC50 is on record?
A: The EC50 was 1000 to 35000 nM.

Q: Which EC50 does the source give for `COC(C)C(=O)N1CCCCC1c1ncc(-c2ccc(C)cc2)[nH]1` (stereo not shown) [Compound 160, 2-methoxy-1-(2-(5-(p-tolyl)-1H-imidazol-2-yl)piperidin-1-yl)propan-1-one] here?
A: The EC50 was 50 to 300 nM.

Q: For `CCC(C)C(=O)N1CCCCC1c1nc(-c2ccccc2)c[nH]1` (stereo not shown) [Compound 161, 2-methyl-1-(2-(4-phenyl-1H-imidazol-2-yl)piperidin-1-yl)butan-1-one], which EC50 is on record?
A: Its EC50 is 50 to 300 nM.

Q: With `CC(C)C(=O)N1CCCCC1c1nc(-c2ccccc2)c[nH]1` (stereo not shown) [Compound 162, 2-methyl-1-(2-(4-phenyl-1H-imidazol-2-yl)piperidin-1-yl)propan-1-one] as the molecule, how does the EC50 read?
A: The EC50 was 300 to 1000 nM.

Q: How did the EC50 turn out when `CC[C@H](C)C(=O)N1CCCC[C@@H]1c1ncc(-c2ccc(C)cc2)[nH]1` [Compound 165, (S)-2-methyl-1-((R)-2-(5-(p-tolyl)-1H-imidazol-2-yl)piperidin-1-yl)butan-1-one] was run?
A: The EC50 was under 50 nM.

Q: For `CC(=O)C(C)C(=O)N1CCCCC1c1ncc(-c2ccc(C)cc2)[nH]1` (stereo not shown) [Compound 167, 2-methyl-1-(2-(5-(p-toly)-1H-imidazol-2-yl)piperidin-1-yl)butane-1,3-dione], which EC50 is on record?
A: The EC50 was 50 to 300 nM.

Q: How did the EC50 turn out when `CCCC(C)C(=O)N1CCCCC1c1ncc(-c2ccc(C)cc2)[nH]1` (stereo not shown) [Compound 168, 2-methyl-1-(2-(5-(p-tolyl)-1H-imidazol-2-yl)piperidin-1-yl)pentan-1-one] was run?
A: Its EC50 is under 50 nM.

Q: Which EC50 does the source give for `C=C(C)C(=O)N1CCCCC1c1ncc(-c2ccc(C)cc2)[nH]1` (stereo not shown) [Compound 169, 2-methyl-1-(2-(5-(p-tolyl)-1H-imidazol-2-yl)piperidin-1-yl)prop-2-en-1-one] here?
A: Its EC50 is under 50 nM.

Q: `Cc1ccc(-c2cnc(C3CCCCN3C(=O)C(C)C)[nH]2)cc1` (stereo not shown) [Compound 170, 2-methyl-1-(2-(5-(p-tolyl)-1H-imidazol-2-yl)piperidin-1-yl)propan-1-one] was tested. Which EC50 did it give?
A: The EC50 was under 50 nM.

Q: For `CSC(C)(C)C(=O)N1CCCCC1c1ncc(-c2ccc(C)cc2)[nH]1` (stereo not shown) [Compound 171, 2-methyl-2-(methylthio)-1-(2-(5-(p-tolyl)-1H-imidazol-2-yl)piperidin-1-yl)propan-1-one], which EC50 is on record?
A: The EC50 was under 50 nM.

Q: Which EC50 does the source give for `CSCC(C)C(=O)N1CCCCC1c1nc(-c2ccccc2)c[nH]1` (stereo not shown) [Compound 172] here?
A: Its EC50 is 300 to 1000 nM.

Q: For `C=C(CC)C(=O)N1CCCCC1c1ncc(-c2ccc(C)cc2)[nH]1` (stereo not shown) [Compound 173, 2-methylene-1-(2-(5-(p-toly)-1H-imidazol-2-yl)piperidin-1-yl)butan-1-one], which EC50 is on record?
A: The EC50 was under 50 nM.

Q: With `CSC(C)C(=O)N1CCCCC1c1nc(-c2cccc(C#N)c2)c[nH]1` (stereo not shown) [Compound 174, 3-(2-(1-(2-(methylthio)propanoyl)piperidin-2-yl)-1H-imidazol-4-yl)benzonitrile] as the molecule, how does the EC50 read?
A: Its EC50 is 50 to 300 nM.

Q: With `CC(C(=O)N1CCCCC1c1nc(-c2ccccc2)c[nH]1)C(F)(F)F` (stereo not shown) [Compound 175, 3,3,3-trifluoro-2-methyl-1-(2-(4-phenyl-1H-imidazol-2-yl)piperidin-1-yl)propan-1-one] as the molecule, how does the EC50 read?
A: The EC50 was 50 to 300 nM.

Q: For `O=C(CC(F)(F)C(F)(F)F)N1CCCCC1c1nc(-c2ccccc2)c[nH]1` (stereo not shown) [Compound 176, 3,3,4,4,4-pentafluoro-1-(2-(4-phenyl-1H-imidazol-2-yl)piperidin-1-yl)butan-1-one], which EC50 is on record?
A: Its EC50 is 1000 to 35000 nM.

Q: For `CC(F)(F)CC(=O)N1CCCCC1c1nc(-c2ccccc2)c[nH]1` (stereo not shown) [Compound 177, 3,3-difluoro-1-(2-(4-phenyl-1H-imidazol-2-yl)piperidin-1-yl)butan-1-one], which EC50 is on record?
A: Its EC50 is 1000 to 35000 nM.

Q: `CSC(C)C(=O)N1CCCCC1c1ncc(-c2ccc(C#N)cc2F)[nH]1` (stereo not shown) [Compound 178, 3-fluoro-4-(2-(1-(2-(methylthio)propanoyl)piperidin-2-yl)-1H-imidazol-5-yl)benzonitrile] was tested. Which EC50 did it give?
A: Its EC50 is under 50 nM.

Q: `CC(C)=CC(=O)N1CCCCC1c1nc(-c2ccccc2)c[nH]1` (stereo not shown) [Compound 179, 3-methyl-1-(2-(4-phenyl-1H-imidazol-2-yl)piperidin-1-yl)but-2-en-1-one] was tested. Which EC50 did it give?
A: Its EC50 is 1000 to 35000 nM.

Q: Which EC50 does the source give for `CC(C)CC(=O)N1CCCCC1c1nc(-c2ccccc2)c[nH]1` (stereo not shown) [Compound 180, 3-methyl-1-(2-(4-phenyl-1H-imidazol-2-yl)piperidin-1-yl)butan-1-one] here?
A: Its EC50 is 1000 to 35000 nM.

Q: For `CSC(C)C(=O)N1CCCCC1c1nc(-c2ccc(C#N)cc2)c[nH]1` (stereo not shown) [Compound 181, 4-(2-(1-(2-(methylthio)propanoyl)piperidin-2-yl)-1H-imidazol-4-yl)benzonitrile], which EC50 is on record?
A: The EC50 was under 50 nM.

Q: Which EC50 does the source give for `CSC(C)C(=O)N1CCCCC1c1ncc(-c2ccc(C=O)cc2)[nH]1` (stereo not shown) [Compound 182, 4-(2-(1-(2-(methylthio)propanoyl)piperidin-2-yl)-1H-imidazol-5-yl)benzaldehyde] here?
A: The EC50 was under 50 nM.

Q: With `CC(CC(F)(F)F)C(=O)N1CCCCC1c1nc(-c2ccccc2)c[nH]1` (stereo not shown) [Compound 183, 4,4,4-trifluoro-2-methyl-1-(2-(4-phenyl-1H-imidazol-2-yl)piperidin-1-yl)butan-1-one] as the molecule, how does the EC50 read?
A: Its EC50 is 300 to 1000 nM.

Q: `O=C(N1CCCCC1c1nc(-c2ccccc2)c[nH]1)C12CC(C1)C2` (stereo not shown) [Compound 184, bicyclo[1.1.1]pentan-1-yl(2-(4-phenyl-1H-imidazol-2-yl)piperidin-1-yl)methanone] was tested. Which EC50 did it give?
A: Its EC50 is 300 to 1000 nM.

Q: For `O=C(C1CCC1)N1CCCCC1c1ncc(-c2cccc(F)c2)[nH]1` (stereo not shown) [Compound 185, cyclobutyl(2-(5-(3-fluorophenyl)-1H-imidazol-2-yl)piperdin-1-yl)methanone], which EC50 is on record?
A: Its EC50 is 300 to 1000 nM.

Q: How did the EC50 turn out when `O=C(C1CCCC1)N1CCCCC1c1nc(-c2ccccc2)c[nH]1` (stereo not shown) [Compound 186, cyclopentyl(2-(4-phenyl-1H-imidazol-2-yl)piperidin-1-yl)methanone] was run?
A: The EC50 was 300 to 1000 nM.

Q: With `O=C(C1CC1)N1CCCCC1c1nc(-c2ccccc2)c[nH]1` (stereo not shown) [Compound 187, cyclopropyl(2-(4-phenyl-1H-imidazol-2-yl)piperidin-1-yl)methanone] as the molecule, how does the EC50 read?
A: Its EC50 is 1000 to 35000 nM.

Q: For `COC(=O)c1ccc(-c2cnc(C3CCCCN3C(=O)C(C)SC)[nH]2)cc1` (stereo not shown) [Compound 188, methyl 4-(2-(1-(2-(methylthio)propanoyl)piperidin-2-yl)-1H-imidazol-5-yl)benzoate], which EC50 is on record?
A: Its EC50 is 50 to 300 nM.

Q: Which EC50 does the source give for `CSC(C)C(=O)N1CCCCC1c1nc(-c2ccc(S(=O)(=O)NCCO)cc2)c[nH]1` (stereo not shown) [Compound 189, N-(2-hydroxyethyl)-4-(2-(1-(2-(methylthio)propanoyl)piperidin-2-yl)-1H-imidazol-4-yl)benzenesulfonamide] here?
A: The EC50 was 1000 to 35000 nM.

Q: With `CSC(C)C(=O)N1CCCCC1c1ncc(-c2cccc([N+](=O)[O-])c2)[nH]1` (stereo not shown) [Compound 190, 2-(methylthio)-1-(2-(5-(3-nitrophenyl)-1H-imidazol-2-yl)piperidin-1-yl)propan-1-one] as the molecule, how does the EC50 read?
A: The EC50 was under 50 nM.

Q: For `CSC(C)C(=O)N1CCCCC1c1nc(-c2ccc(NS(C)(=O)=O)cc2)c[nH]1` (stereo not shown) [Compound 191, N-(4-(2-(1-(2-(methylthio)propanoyl)piperidin-2-yl)-1H-imidazol-4-yl)phenyl)methanesulfonamide], which EC50 is on record?
A: The EC50 was 1000 to 35000 nM.

Q: For `CSC(C)C(=O)N1CCCCC1c1ncc(-c2ccc([N+](=O)[O-])cc2)[nH]1` (stereo not shown) [Compound 192, 2-(methylthio)-1-(2-(5-(4-nitrophenyl)-1H-imidazol-2-yl)piperidin-1-yl)propan-1-one], which EC50 is on record?
A: Its EC50 is under 50 nM.

Q: Which EC50 does the source give for `Cc1ccc(-c2cnc(C3CCCCN3C(=O)C3CC3(C)C)[nH]2)cc1` (stereo not shown) [Compound 193, (2,2-dimethylcyclopropyl)(2-(5-(p-toly)-1H-imidazol-2-yl)piperidin-1-yl)methanone] here?
A: Its EC50 is under 50 nM.

Q: With `CCC(C)C(=O)N1CCCCC1c1ncc(Br)[nH]1` (stereo not shown) [Compound 194, 1-(2-(5-bromo-1H-imidazol-2-yl)piperidin-1-yl)-2-methylbutan-1-one] as the molecule, how does the EC50 read?
A: Its EC50 is 1000 to 35000 nM.

Q: With `CCC(C)C(=O)N1CCCCC1c1ncc(-c2ccc(Cl)cc2)[nH]1` (stereo not shown) [Compound 195, 1-(2-(5-(4-chlorophenyl)-1H-imidazol-2-yl)piperidin-1-yl)-2-methylbutan-1-one] as the molecule, how does the EC50 read?
A: Its EC50 is under 50 nM.

Q: How did the EC50 turn out when `CSC(C)C(=O)N1CCCCC1c1ncc(-c2ccc(CC#N)cc2)[nH]1` (stereo not shown) [Compound 196, 2-(4-(2-(1-(2-(methylthio)propanoyl)piperidin-2-yl)-1H-imidazol-5-yl)phenyl)acetonitrile] was run?
A: Its EC50 is under 50 nM.
